Activity calls are given as the source filed them. The calls are words filed in the database; no cut-off is given here.
Experiments:
Platelet [1] = test: Antiaggregating activity in Homo sapiens (human) platelet rich plasma assessed as inhibition of adrenaline-induced platelet aggregation at 0.125 uM incubated for 4 min prior to adrenaline-induction measured for 5.5 min by turbidometric analysis; type: functional, cell-free
Platelet [2] = test: Antiaggregating activity in Homo sapiens (human) platelet rich plasma assessed as inhibition of collagen-induced platelet aggregation at 0.125 uM incubated for 4 min prior to collagen-induction measured for 5.5 min by turbidometric analysis; type: functional, cell-free
[3] = Antiaggregating activity in Homo sapiens (human) platelet rich plasma assessed as ristocetin-induced platelet aggregation at 1 uM incubated for 4 min prior to ristocetin-induction measured for 5.5 min by turbidometric analysis (reference value: 65 to 99%); type: functional
Platelet [4] = test: Antiaggregating activity in Homo sapiens (human) platelet rich plasma assessed as inhibition of arachidonic acid-induced platelet aggregation at 1 uM incubated for 4 min prior to arachidonic acid-induction measured for 5.5 min by turbidometric analysis; type: functional, cell-free
[5] = Antiaggregating activity in Homo sapiens (human) platelet rich plasma assessed as ADP-induced platelet aggregation at 0.03 uM incubated for 4 min prior to ADP-induction measured for 5.5 min by turbidometric analysis (reference value: 54 to 88%); type: functional
Platelet [6] = test: Antiaggregating activity in Homo sapiens (human) platelet rich plasma assessed as inhibition of arachidonic acid-induced platelet aggregation at 0.125 uM incubated for 4 min prior to arachidonic acid-induction measured for 5.5 min by turbidometric analysis; type: functional, cell-free
Platelet [7] = test: Antiaggregating activity in Homo sapiens (human) platelet rich plasma assessed as inhibition of adrenaline-induced platelet aggregation at 1 uM incubated for 4 min prior to adrenaline-induction measured for 5.5 min by turbidometric analysis; type: functional, cell-free
Platelet [8] = test: Antiaggregating activity in Homo sapiens (human) platelet rich plasma assessed as inhibition of collagen-induced platelet aggregation at 0.06 uM incubated for 4 min prior to collagen-induction measured for 5.5 min by turbidometric analysis; type: functional, cell-free
[9] = Antiaggregating activity in Homo sapiens (human) platelet rich plasma assessed as arachidonic acid-induced platelet aggregation at 0.03 uM incubated for 4 min prior to arachidonic acid-induction measured for 5.5 min by turbidometric analysis (reference value: 55 to 100%); type: functional
[10] = Antiaggregating activity in Homo sapiens (human) platelet rich plasma assessed as ristocetin-induced platelet aggregation at 0.03 uM incubated for 4 min prior to ristocetin-induction measured for 5.5 min by turbidometric analysis (reference value: 65 to 99%); type: functional
[11] = Antiaggregating activity in Homo sapiens (human) platelet rich plasma assessed as disaggregation of ADP-induced platelet aggregation at 0.06 uM incubated for 4 min prior to ADP-induction measured for 5.5 min by turbidometric analysis relative to control; type: functional
Platelet [12] = test: Antiaggregating activity in Homo sapiens (human) platelet rich plasma assessed as inhibition of arachidonic acid-induced platelet aggregation at 0.06 uM incubated for 4 min prior to arachidonic acid-induction measured for 5.5 min by turbidometric analysis; type: functional, cell-free
Platelet [13] = test: Antiaggregating activity in Homo sapiens (human) platelet rich plasma assessed as inhibition of adrenaline-induced platelet aggregation at 0.06 uM incubated for 4 min prior to adrenaline-induction measured for 5.5 min by turbidometric analysis; type: functional, cell-free
Platelet [14] = test: Antiaggregating activity in Homo sapiens (human) platelet rich plasma assessed as inhibition of adrenaline-induced platelet aggregation at 0.03 uM incubated for 4 min prior to adrenaline-induction measured for 5.5 min by turbidometric analysis; type: functional, cell-free
Platelet [15] = test: Antiaggregating activity in Homo sapiens (human) platelet rich plasma assessed as inhibition of ADP-induced platelet aggregation at 0.125 uM incubated for 4 min prior to ADP-induction measured for 5.5 min by turbidometric analysis; type: functional, cell-free
Platelet [16] = test: Antiaggregating activity in Homo sapiens (human) platelet rich plasma assessed as inhibition of collagen-induced platelet aggregation at 1 uM incubated for 4 min prior to collagen-induction measured for 5.5 min by turbidometric analysis; type: functional, cell-free
Platelet [17] = test: Antiaggregating activity in Homo sapiens (human) platelet rich plasma assessed as inhibition of collagen-induced platelet aggregation at 0.03 uM incubated for 4 min prior to collagen-induction measured for 5.5 min by turbidometric analysis; type: functional, cell-free
Platelet [18] = test: Antiaggregating activity in Homo sapiens (human) platelet rich plasma assessed as inhibition of ADP-induced platelet aggregation at 1 uM incubated for 4 min prior to ADP-induction measured for 5.5 min by turbidometric analysis; type: functional, cell-free
[19] = Antiaggregating activity in Homo sapiens (human) platelet rich plasma assessed as ristocetin-induced platelet aggregation at 0.125 uM incubated for 4 min prior to ristocetin-induction measured for 5.5 min by turbidometric analysis (reference value: 65 to 99%); type: functional
[20] = Antiaggregating activity in Homo sapiens (human) platelet rich plasma assessed as ristocetin-induced platelet aggregation at 0.06 uM incubated for 4 min prior to ristocetin-induction measured for 5.5 min by turbidometric analysis (reference value: 65 to 99%); type: functional
Platelet [21] = test: (§1) Antiaggregating activity in Homo sapiens (human) platelet rich plasma assessed as inhibition of collagen-induced platelet aggregation at 0.25 uM incubated for 4 min prior to collagen-induction measured for 5.5 min by turbidometric analysis; type: functional
[22] = Antiaggregating activity in Homo sapiens (human) platelet rich plasma assessed as disaggregation of ristocetin-induced platelet aggregation at 0.25 uM incubated for 4 min prior to ristocetin-induction measured for 5.5 min by turbidometric analysis relative to control; type: functional
Platelet [23] = test: Antiaggregating activity in Homo sapiens (human) platelet rich plasma assessed as inhibition of adrenaline-induced platelet aggregation at 0.25 uM incubated for 4 min prior to adrenaline-induction measured for 5.5 min by turbidometric analysis; type: functional, cell-free
Platelet [24] = test: Antiaggregating activity in Homo sapiens (human) platelet rich plasma assessed as inhibition of adrenaline-induced platelet aggregation at 0.1 uM incubated for 4 min prior to adrenaline-induction measured for 5.5 min by turbidometric analysis; type: functional, cell-free
[25] = Antiaggregating activity in Homo sapiens (human) platelet rich plasma assessed as disaggregation of ADP-induced platelet aggregation at 0.25 uM incubated for 4 min prior to ADP-induction measured for 5.5 min by turbidometric analysis relative to control; type: functional
[26] = Antiaggregating activity in Homo sapiens (human) platelet rich plasma assessed as ADP-induced platelet aggregation at 0.1 uM incubated for 4 min prior to ADP-induction measured for 5.5 min by turbidometric analysis (reference value: 54 to 88%); type: functional
[27] = Antiaggregating activity in Homo sapiens (human) platelet rich plasma assessed as ristocetin-induced platelet aggregation at 0.5 uM incubated for 4 min prior to ristocetin-induction measured for 5.5 min by turbidometric analysis (reference value: 65 to 99%); type: functional
[28] = Antiaggregating activity in Homo sapiens (human) platelet rich plasma assessed as arachidonic acid-induced platelet aggregation at 0.1 uM incubated for 4 min prior to arachidonic acid-induction measured for 5.5 min by turbidometric analysis (reference value: 55 to 100%); type: functional
Platelet [29] = test: Antiaggregating activity in Homo sapiens (human) platelet rich plasma assessed as inhibition of collagen-induced platelet aggregation at 0.1 uM incubated for 4 min prior to collagen-induction measured for 5.5 min by turbidometric analysis; type: functional, cell-free
Platelet [30] = test: Antiaggregating activity in Homo sapiens (human) platelet rich plasma assessed as inhibition of collagen-induced platelet aggregation at 0.5 uM incubated for 4 min prior to collagen-induction measured for 5.5 min by turbidometric analysis; type: functional, cell-free
Platelet [31] = test: (§2) Antiaggregating activity in Homo sapiens (human) platelet rich plasma assessed as inhibition of arachidonic acid-induced platelet aggregation at 0.5 uM incubated for 4 min prior to arachidonic acid-induction measured for 5.5 min by turbidometric analysis; type: functional
Platelet [32] = test: Antiaggregating activity in Homo sapiens (human) platelet rich plasma assessed as inhibition of arachidonic acid-induced platelet aggregation at 0.25 uM incubated for 4 min prior to arachidonic acid-induction measured for 5.5 min by turbidometric analysis; type: functional, cell-free
Platelet [33] = test: Antiaggregating activity in Homo sapiens (human) platelet rich plasma assessed as inhibition of adrenaline-induced platelet aggregation at 0.5 uM incubated for 4 min prior to adrenaline-induction measured for 5.5 min by turbidometric analysis; type: functional, cell-free
[34] = Antiaggregating activity in Homo sapiens (human) platelet rich plasma assessed as ristocetin-induced platelet aggregation at 0.1 uM incubated for 4 min prior to ristocetin-induction measured for 5.5 min by turbidometric analysis (reference value: 65 to 99%); type: functional
Platelet [35] = test: Antiaggregating activity in Homo sapiens (human) platelet rich plasma assessed as inhibition of ADP-induced platelet aggregation at 0.5 uM incubated for 4 min prior to ADP-induction measured for 5.5 min by turbidometric analysis; type: functional, cell-free
[36] = Antiaggregating activity in Homo sapiens (human) platelet rich plasma assessed as collagen-induced platelet aggregation at 0.03 uM incubated for 4 min prior to collagen-induction measured for 5.5 min by turbidometric analysis (reference value: 50 to 98%); type: functional
Platelet [37] = test: Antiaggregating activity in Homo sapiens (human) platelet rich plasma assessed as inhibition of ristocetin-induced platelet aggregation at 2 uM incubated for 4 min prior to ristocetin-induction measured for 5.5 min by turbidometric analysis; type: functional, cell-free
[38] = as §1; type: functional; parameters: scale not given: the % may be the effect or the level left
[39] = Antiaggregating activity in Homo sapiens (human) platelet rich plasma assessed as ADP-induced platelet aggregation at 0.25 uM incubated for 4 min prior to ADP-induction measured for 5.5 min by turbidometric analysis (reference value: 54 to 88%); type: functional
[40] = Antiaggregating activity in Homo sapiens (human) platelet rich plasma assessed as ristocetin-induced platelet aggregation at 0.25 uM incubated for 4 min prior to ristocetin-induction measured for 5.5 min by turbidometric analysis (reference value: 65 to 99%); type: functional
Platelet [41] = test: Antiaggregating activity in Homo sapiens (human) platelet rich plasma assessed as inhibition of ADP-induced platelet aggregation at 2 uM incubated for 4 min prior to ADP-induction measured for 5.5 min by turbidometric analysis; type: functional, cell-free
[42] = Antiaggregating activity in Homo sapiens (human) platelet rich plasma assessed as adrenaline-induced platelet aggregation at 0.25 uM incubated for 4 min prior to adrenaline-induction measured for 5.5 min by turbidometric analysis (reference value: 65 to 100%); type: functional
[43] = Antiaggregating activity in Homo sapiens (human) platelet rich plasma assessed as disaggregation of ADP-induced platelet aggregation at 1 uM incubated for 4 min prior to ADP-induction measured for 5.5 min by turbidometric analysis relative to control; type: functional
[44] = as §2; type: functional; parameters: scale not given: the % may be the effect or the level left
Platelet [45] = test: Antiaggregating activity in Homo sapiens (human) platelet rich plasma assessed as inhibition of adrenaline-induced platelet aggregation at 2 uM incubated for 4 min prior to adrenaline-induction measured for 5.5 min by turbidometric analysis; type: functional, cell-free
Platelet [46] = test: Antiaggregating activity in Homo sapiens (human) platelet rich plasma assessed as inhibition of arachidonic acid-induced platelet aggregation at 2 uM incubated for 4 min prior to arachidonic acid-induction measured for 5.5 min by turbidometric analysis; type: functional, cell-free
Platelet [47] = test: Antiaggregating activity in Homo sapiens (human) platelet rich plasma assessed as inhibition of collagen-induced platelet aggregation at 2 uM incubated for 4 min prior to collagen-induction measured for 5.5 min by turbidometric analysis; type: functional, cell-free
Platelet [48] = test: Antiaggregating activity in Homo sapiens (human) platelet rich plasma assessed as inhibition of ADP-induced platelet aggregation at 0.25 uM incubated for 4 min prior to ADP-induction measured for 5.5 min by turbidometric analysis; type: functional, cell-free
Platelet [49] = test: Antiaggregating activity in Homo sapiens (human) platelet rich plasma assessed as inhibition of ristocetin-induced platelet aggregation at 1 uM incubated for 4 min prior to ristocetin-induction measured for 5.5 min by turbidometric analysis; type: functional, cell-free

Row | Structure (SMILES) | inhibition (Platelet [1]) | inhibition (Platelet [2]) | Activity [3] [%] | inhibition (Platelet [4]) | Activity [5] [%] | inhibition (Platelet [6]) | inhibition (Platelet [7]) | inhibition (Platelet [8]) | Activity [9] [%] | Activity [10] [%] | Activity [11] [%] | inhibition (Platelet [12]) | inhibition (Platelet [13]) | inhibition (Platelet [16]) | inhibition (Platelet [18]) | Activity [27] [%] | inhibition (Platelet [30]) | inhibition (Platelet [31]) | inhibition (Platelet [33]) | inhibition (Platelet [35]) | further results
1 | Br.O=C(C1CCCN(Cc2ccc(Br)cc2)C1)N1CCN(c2ccccc2Cl)CC1 (stereo not given) | Active | Active | 39 | Active | 55 | Active | Active | Active | 56 | 67 | 20 | Active | Active | Active | Active |  |  |  |  |  | inhibition (Platelet [14]): Active; inhibition (Platelet [15]): Active; inhibition (Platelet [17]): Active; Activity [19]: 53%; Activity [20]: 62%
2 | Cl.O=C(C1CCCN(Cc2ccccc2F)C1)N1CCN(c2ccccc2Cl)CC1 (stereo not given) |  |  | 50 | Active |  |  | Active |  |  |  |  |  |  | Active | Active | 73 | Active | Active | Active | Active | inhibition (Platelet [21]): Active; Activity [22]: 18%; inhibition (Platelet [23]): Active; inhibition (Platelet [24]): Active; Activity [25]: 38%; Activity [26]: 74%; Activity [28]: 59%; inhibition (Platelet [29]): Active; inhibition (Platelet [32]): Active; Activity [34]: 50%
3 | Br.O=C(C1CCCN(Cc2ccc(CN3CCCC(C(=O)N4CCN(c5ccccc5Cl)CC4)C3)cc2)C1)N1CCN(c2ccccc2Cl)CC1 (stereo not given) | Active | Active | 30 | Active | 84 | Active | Active | Active | 58 | 78 | 27 | Active | Active | Active | Active | 35 | Active | Active | Active | Active | Activity [36]: 76%; inhibition (Platelet [14]): Active; inhibition (Platelet [15]): Active; Activity [19]: 31%; Activity [20]: 61%
4 | O=C(c1ccc[n+](Cc2ccccc2)c1)N1CCN(C(=O)c2ccc[n+](Cc3ccccc3)c2)CC1.[Cl-].[Cl-] |  |  | 73 | Active |  |  | Active |  |  |  |  |  |  | Active |  |  |  |  |  |  | inhibition (Platelet [37]): Active; Activity [38]: 79%; Activity [39]: 28%; Activity [40]: 80%; inhibition (Platelet [41]): Active; Activity [42]: 66%; Activity [43]: 25%; Activity [44]: 71%; inhibition (Platelet [45]): Active; inhibition (Platelet [46]): Active; inhibition (Platelet [47]): Active
5 | COc1cc(C(=O)[n+]2cccc(C(=O)N3CCN(c4ccccc4Cl)CC3)c2)cc(OC)c1OC.[Cl-] |  |  |  | Active |  |  | Active |  |  |  |  |  |  | Active | Active | 20 | Active | Active | Active | Active | inhibition (Platelet [48]): Active; inhibition (Platelet [21]): Active; inhibition (Platelet [23]): Active; inhibition (Platelet [49]): Active; Activity [40]: 79%; inhibition (Platelet [32]): Active

From ChEMBL document CHEMBL3046822, “Synthesis, antiplatelet aggregation activity, and molecular modeling study of novel substituted-piperazine analogues” (2011)
